Experimental data taken from patent US20050100529A1, “Methods of using and compositions comprising immunomodulatory compounds for the treatment and management of asbestos-related diseases and disorders” (priority 2003, published 2005).

Legend:
TNF-α [1] = assay: Inhibition of TNF-α production following LPS-stimulation of human PBMC; format: cell-based; settings: for IC50: human PBMC, LPS-stimulated, in vitro, read-out: IC50 for inhibiting production of TNF-α following LPS-stimulation of PBMC
Excerpt: (§1) In a specific embodiment, inhibitions of TNF-α production following LPS-stimulation of human PBMC and human whole blood by 3-(4-amino-1-oxo-1,3-dihydro-isoindol-2-yl)-piperidine-2,6-dione, 4-(amino)-2-(2,6-dioxo-(3-piperidyl))-isoindoline-1,3-dione or thalidomide were investigated in vitro.

TNF-α [2] = assay: Inhibition of TNF-α production following LPS-stimulation of human whole blood; format: cell-based; settings: LPS-stimulated, in vitro, read-out: IC50 for inhibiting production of TNF-α following LPS-stimulation of human whole blood
Excerpt: as §1

IL1β = assay: LPS-stimulated production of IL1β by PBMC; format: cell-based
IL6 = assay: LPS-stimulated production of IL6 by PBMC; format: cell-based
IL10 = assay: LPS-stimulated production of IL10 by PBMC; format: cell-based
mesothelioma patients = assay: Clinical studies in unresectable or relapsed mesothelioma patients; format: in vivo, human; settings: 10 mg as a continuous oral daily dose
Procedure: Clinical trials with the administration of an immunomodulatory compound in an amount of from about 1 mg to about 1,000 mg, from about 1 mg to about 500 mg, or from about 1 mg to about 250 mg per day are conducted in patients with asbestosis, malignant mesothelioma, or malignant pleural effusion mesothelioma syndrome. In a specific embodiment, patients receive about 1 mg to about 150 mg/day of 3-(4-amino-1-oxo-1,3-dihydro-isoindol-2-yl)-piperidine-2,6-dione alone or in combination with vinorelbine. Patients who experience clinical benefit are permitted to continue on treatment.
Other clinical studies are performed using 3-(4-amino-1-oxo-1,3-dihydro-isoindol-2-yl)-piperidine-2,6-dione in unresectable or relapsed mesothelioma patients that have not responded to conventional therapy. In one embodiment, 3-(4-amino-1-oxo-1,3-dihydro-isoindol-2-yl)-piperidine-2,6-dione is administered in an amount of about 1 mg to about 150 mg/day to the patients. Treatment with 10 mg as a continuous oral daily dose is well-tolerated.

[3] = crystalline polymorph of 3-(4-amino-1-oxo-1,3 dihydro-isoindol-2-yl)-piperidine-2,6-dione; cited from earlier work
[4] = solvent systems, humidity or heating as worded; cited from earlier work

IC50 (TNF-α [1]) | IC50 (TNF-α [1]; same value in mass units) | SMILES | Hygroscopicity [3] | Stability / interconversion of the polymorphic form [4] | other results
~194 µM | ~50.1 mg/L | O=C1CCC(N2C(=O)c3ccccc3C2=O)C(=O)N1 (racemic) [Thalidomide, thalidomide, reference compound] | – | – | –
~0.1 µM | ~0.0259 mg/L | Nc1cccc2c1CN(C1CCC(=O)NC1=O)C2=O (stereo not drawn) [3-(4-amino-1-oxo-1,3-dihydro-isoindol-2-yl)-piperidine-2,6-dione] | – | – | Effect on LPS-stimulated production of TNF-α by PBMC (TNF-α [1]): dose-dependent inhibition; IC50 (TNF-α [2]): ~0.48 µM; IC50 (TNF-α [2]; same value in mass units): ~0.104 mg/L; Effect on LPS-stimulated production of IL1β by PBMC (IL1β): dose-dependent inhibition; Effect on LPS-stimulated production of IL6 by PBMC (IL6): dose-dependent inhibition; Effect on production of the anti-inflammatory cytokine IL10 (IL10): increased production; Tolerability (mesothelioma patients): well-tolerated
~0.024 µM | ~0.00655 mg/L | Nc1cccc2c1C(=O)N(C1CCC(=O)NC1=O)C2=O (stereo not drawn) [4-(amino)-2-(2,6-dioxo(3-piperidyl))-isoindoline-1,3-dione] | – | – | Effect on LPS-stimulated production of TNF-α by PBMC (TNF-α [1]): dose-dependent inhibition; IC50 (TNF-α [2]): ~0.025 µM; IC50 (TNF-α [2]; same value in mass units): ~0.00683 mg/L; Effect on LPS-stimulated production of IL1β by PBMC (IL1β): dose-dependent inhibition; Effect on LPS-stimulated production of IL6 by PBMC (IL6): dose-dependent inhibition; Effect on production of the anti-inflammatory cytokine IL10 (IL10): increased production
– | – | Nc1cccc2c1CN(C1CCC(=O)NC1=O)C2=O (stereo not drawn) [Form A, 3-(4-amino-1-oxo-1,3 dihydro-isoindol-2-yl)-piperidene-2,6-dione] | weakly or not hygroscopic | most thermodynamically stable anhydrous polymorph | –
– | – | Nc1cccc2c1CN(C1CCC(=O)NC1=O)C2=O (stereo not drawn) [Form B, 3-(4-amino-1-oxo-1,3 dihydro-isoindol-2-yl)-piperidene-2,6-dione] | – | converts to Form E in aqueous solvent systems | –
– | – | Nc1cccc2c1CN(C1CCC(=O)NC1=O)C2=O (stereo not drawn) [Form C, 3-(4-amino-1-oxo-1,3 dihydro-isoindol-2-yl)-piperidene-2,6-dione] | not hygroscopic below about 85% RH | can convert to Form B at higher relative humidities | –
– | – | Nc1cccc2c1CN(C1CCC(=O)NC1=O)C2=O (stereo not drawn) [Form D, 3-(4-amino-1-oxo-1,3 dihydro-isoindol-2-yl)-piperidene-2,6-dione] | either weakly or not hygroscopic | convert to Form B when stressed at higher relative humidities | –
– | – | Nc1cccc2c1CN(C1CCC(=O)NC1=O)C2=O (stereo not drawn) [Form E, 3-(4-amino-1-oxo-1,3 dihydro-isoindol-2-yl)-piperidene-2,6-dione] | – | In aqueous solvent systems, Form E appears to be the most stable form | –
